In ChEMBL document CHEMBL1201862, “PubChem BioAssay data set” (2004):
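Where inhibition never reached the appropriate level, the endpoint shown equals the highest concentration tested. Otherwise, values were interpolated linearly from a five-concentration, 48-hour dose response in 96-well plates. GI50 = concentration required for 50% inhibition of growth.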 The source made the active and inactive calls. Cut-off read from the data, not from the text of the source: active = GI50 up to about 1.1 µM and inactive = higher.

How the values were obtained:
Test in all cases: NCI anticancer screen, dose series, 48 h
M14 = test system: M14
IGROV-1 = test system: IGROV-1
M19-MEL = test system: M19-MEL
SF-539 = test system: SF-539
HOP-92 = test system: HOP-92
UACC-257 = test system: UACC-257
HT-29 = test system: HT-29
LOX IMVI = test system: LOX IMVI
SK-MEL-2 = test system: SK-MEL-2
SF-268 = test system: SF-268
NCI-H460 = test system: NCI-H460
OVCAR-5 = test system: OVCAR-5
OVCAR-3 = test system: OVCAR-3
CCRF-CEM = test system: CCRF-CEM
COLO 205 = test system: COLO 205
HL-60 = test system: HL-60
T47D = test system: T47D
BT-549 = test system: BT-549
MCF7 = test system: MCF7
Hs-578T = test system: Hs-578T

Compound | GI50 (M14) | GI50 (IGROV-1) | GI50 (M19-MEL) | GI50 (SF-539) | GI50 (HOP-92) | GI50 (UACC-257) | GI50 (HT-29) | GI50 (LOX IMVI) | GI50 (SK-MEL-2) | GI50 (SF-268) | GI50 (NCI-H460) | GI50 (OVCAR-5) | GI50 (OVCAR-3) | GI50 (CCRF-CEM) | GI50 (COLO 205) | GI50 (HL-60) | GI50 (T47D) | GI50 (BT-549) | GI50 (MCF7) | GI50 (Hs-578T)
COc1cc(OC)c2c(c1)C(=O)C(CC1(C)OCCCO1)=CC2=O | 13 µM (inactive) | 17.9 µM (inactive) | 3.37 µM (inactive) | 12.8 µM (inactive) | 1.83 µM (inactive) | 13 µM (inactive) | 13.8 µM (inactive) | 4.34 µM (inactive) | 15.2 µM (inactive) | 13.9 µM (inactive) | 18.6 µM (inactive) | 16.9 µM (inactive) | 8.55 µM (inactive) | 1.74 µM (inactive) | 14.3 µM (inactive) | 2.17 µM (inactive) |  |  |  | 
Cl[Si]1(Cl)Oc2ccccc2O[Si](Cl)(Cl)Oc2ccccc2O1 | 15.5 µM (inactive) | 28.6 µM (inactive) | 12 µM (inactive) | 20.3 µM (inactive) | 17.7 µM (inactive) |  | 17 µM (inactive) | 9.14 µM (inactive) | 20.5 µM (inactive) | 15 µM (inactive) | 6.9 µM (inactive) | 27.7 µM (inactive) | 21.7 µM (inactive) | 1.45 µM (inactive) | 13.8 µM (inactive) | 1.25 µM (inactive) |  |  |  | 
CSc1ccc(OCC2OC2O)cc1 (stereo not drawn) | 49.5 µM (inactive) | > 100 µM (inactive) | 37.7 µM (inactive) | 74.8 µM (inactive) | > 58.2 µM (inactive) | 41.2 µM (inactive) | 32.3 µM (inactive) | 16.9 µM (inactive) | > 77.1 µM (inactive) |  | 29.4 µM (inactive) | > 94.6 µM (inactive) | 30.6 µM (inactive) | 21.7 µM (inactive) | 16.5 µM (inactive) | 27.3 µM (inactive) |  |  |  | 
CC(=O)OCC1=C(CCC#N)N2C(=O)C(NC(=O)Cc3cccs3)C2[S+]([O-])C1 (stereo not drawn) | > 100 µM (inactive) | > 100 µM (inactive) | > 100 µM (inactive) | > 100 µM (inactive) | > 100 µM (inactive) | > 100 µM (inactive) | > 100 µM (inactive) | > 100 µM (inactive) | > 100 µM (inactive) | > 100 µM (inactive) | > 100 µM (inactive) | > 100 µM (inactive) | > 100 µM (inactive) | > 100 µM (inactive) | > 100 µM (inactive) | > 100 µM (inactive) |  |  |  | 
CN(/N=C/c1cccc2cccnc12)c1ccc([N+](=O)[O-])cc1 | > 100 µM (inactive) | > 100 µM (inactive) | > 100 µM (inactive) | 7.69 µM (inactive) | > 100 µM (inactive) | > 100 µM (inactive) | 20.7 µM (inactive) | > 100 µM (inactive) | > 100 µM (inactive) | > 100 µM (inactive) | 8.07 µM (inactive) | > 100 µM (inactive) | > 100 µM (inactive) | > 100 µM (inactive) | > 100 µM (inactive) | > 100 µM (inactive) |  |  |  | 
CCC12C=CCN3CC[C@]4(C(=C(C(=O)OC)[C@@H]1Nc1ncnc5c1ncn5C1OC(COC(C)=O)C(OC(C)=O)C1OC(C)=O)Nc1ccccc14)C32 (stereo partly drawn) | 2.62 µM (inactive) | 2.85 µM (inactive) | 1.99 µM (inactive) | 2.18 µM (inactive) | 2.39 µM (inactive) | 5.3 µM (inactive) | 2.23 µM (inactive) | 1.75 µM (inactive) | 3.44 µM (inactive) | 2.05 µM (inactive) | 2.51 µM (inactive) | 3.47 µM (inactive) | 1.98 µM (inactive) | 2.45 µM (inactive) | 1.88 µM (inactive) | 2.65 µM (inactive) |  |  |  | 
COC(=O)/C([Se]c1c(C)cc(C)cc1C)=C(/[Se]c1c(C)cc(C)cc1C)C(=O)OC | > 100 µM (inactive) | > 100 µM (inactive) | > 100 µM (inactive) | > 100 µM (inactive) | 68.4 µM (inactive) | > 100 µM (inactive) | 91.2 µM (inactive) | > 100 µM (inactive) | > 100 µM (inactive) | > 100 µM (inactive) | 78.7 µM (inactive) | > 100 µM (inactive) | > 100 µM (inactive) | > 100 µM (inactive) | > 100 µM (inactive) | > 100 µM (inactive) |  |  |  | 
Cc1c(Cl)cccc1NC(=O)CC1C(=O)Nc2ccccc2S1(=O)=O (stereo not drawn) | 14.2 µM (inactive) | 15.3 µM (inactive) | 20.4 µM (inactive) | 14.7 µM (inactive) | 15.7 µM (inactive) | 24 µM (inactive) | 17.6 µM (inactive) | 14.6 µM (inactive) | 19.4 µM (inactive) | 19.6 µM (inactive) | 14.7 µM (inactive) | 20.6 µM (inactive) | 16.6 µM (inactive) | 16.5 µM (inactive) |  | 2.72 µM (inactive) |  |  |  | 
Cc1ccc([N+](=O)[O-])cc1NC(=O)C(=O)Cc1cc(=O)oc2cc(O)ccc12 | > 100 µM (inactive) | > 100 µM (inactive) | > 100 µM (inactive) | > 100 µM (inactive) | > 100 µM (inactive) | > 100 µM (inactive) | > 100 µM (inactive) | 26.6 µM (inactive) | > 100 µM (inactive) | 32 µM (inactive) | 83.9 µM (inactive) | > 100 µM (inactive) | > 100 µM (inactive) | 39.1 µM (inactive) | 42.8 µM (inactive) | > 100 µM (inactive) |  |  |  | 
COc1cc2c(c(OC)c1OC)-c1ccc(SC)c(=O)cc1[C@@H](NC(=O)c1ccc(C#N)cc1)CC2 | < 0.01 µM (active) | < 0.01 µM (active) | < 0.01 µM (active) | < 0.01 µM (active) | < 0.01 µM (active) | < 0.01 µM (active) | < 0.01 µM (active) | < 0.01 µM (active) | < 0.01 µM (active) | < 0.01 µM (active) | < 0.01 µM (active) | < 0.01 µM (active) | < 0.01 µM (active) | < 0.01 µM (active) | < 0.01 µM (active) | < 0.01 µM (active) |  |  |  | 
Ic1cc2c(cc1C1SCCCS1)OCO2 | > 100 µM (inactive) | > 100 µM (inactive) | > 100 µM (inactive) | > 100 µM (inactive) | > 100 µM (inactive) | > 100 µM (inactive) | > 100 µM (inactive) | > 100 µM (inactive) | > 100 µM (inactive) | > 100 µM (inactive) | > 100 µM (inactive) | > 100 µM (inactive) | > 100 µM (inactive) | > 100 µM (inactive) | > 100 µM (inactive) | > 100 µM (inactive) |  |  |  | 
Cc1c2cnccc2c(C)c2c1c1ccccc1n2CCCN | 0.276 µM (active) | 0.506 µM (active) | 0.262 µM (active) | 0.582 µM (active) | 0.281 µM (active) | 1.09 µM (active) | 0.206 µM (active) | 0.109 µM (active) | 0.721 µM (active) |  |  | 0.667 µM (active) |  |  | 0.222 µM (active) |  | 526 nM (active) | 1.46 µM (inactive) | 282 nM (active) | 374 nM (active)
O=C(CSc1nc(-c2ccccc2)c(-c2ccccc2)[nH]1)N/N=C/c1ccc([N+](=O)[O-])cc1 | 17.4 µM (inactive) | 17.6 µM (inactive) | 17.1 µM (inactive) | 16 µM (inactive) | 13.8 µM (inactive) | 19 µM (inactive) | 19.2 µM (inactive) | 15.9 µM (inactive) | 13.8 µM (inactive) | 16.2 µM (inactive) | 19.4 µM (inactive) |  | 15.1 µM (inactive) | 21.4 µM (inactive) | 16.7 µM (inactive) | 34.8 µM (inactive) |  |  |  | 
